In PubChem BioAssay (NCI):
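How tested: cells in 96-well plates exposed to compound for 48 hours at five concentrations. Abbreviation: GI50, concentration required for 50% inhibition of growth. The concentration for full growth arrest is given as TGI.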

Columns and labels:
Test in all cases: DTP human tumour cell line panel, 48 h
A549 NSCLC = system: A549 NSCLC
SF-295 CNS = system: SF-295 CNS
OVCAR-4 ovarian = system: OVCAR-4 ovarian
SR leukemia = system: SR leukemia
IGROV1 ovarian = system: IGROV1 ovarian
UACC-257 melanoma = system: UACC-257 melanoma
LOX IMVI melanoma = system: LOX IMVI melanoma
NCI-H522 lung = system: NCI-H522 lung

| Compound | TGI (A549 NSCLC) [µM] | TGI (SF-295 CNS) [µM] | TGI (OVCAR-4 ovarian) [µM] | TGI (SR leukemia) [µM] | TGI (IGROV1 ovarian) [µM] | TGI (UACC-257 melanoma) [µM] | TGI (LOX IMVI melanoma) [µM] | TGI (NCI-H522 lung) [µM] | GI50 (A549 NSCLC) [µM] | GI50 (SF-295 CNS) [µM] | GI50 (OVCAR-4 ovarian) [µM] | GI50 (SR leukemia) [µM] | GI50 (IGROV1 ovarian) [µM] | GI50 (UACC-257 melanoma) [µM] | GI50 (LOX IMVI melanoma) [µM] |
| --- | --- | --- | --- | --- | --- | --- | --- | --- | --- | --- | --- | --- | --- | --- | --- |
| COc1cc(C(=O)C/C(CCC(=O)Nc2ccccc2[N+](=O)[O-])=N\NC(=O)C(N)=O)ccc1O | > 100 | > 100 | > 100 | > 100 | > 100 | > 100 | > 100 |  |  |  |  |  |  |  |  |
| CC(=O)CC(=O)N(CCN(C(=O)CC(C)=O)c1ccccc1)c1ccccc1 | > 100 | > 100 | > 100 |  | > 100 | > 100 | > 100 | > 100 |  |  |  |  |  |  |  |
| CCCCCCCCCOC(=S)NC | 65.1 | 67.5 | 42.2 |  | 63.7 |  | 35.5 | 31.2 |  |  |  |  |  |  |  |
| CN1CCC23c4c5ccc(O)c4OC2C(=NN=C2CCC4(O)C6Cc7ccc(O)c8c7C4(CCN6C)C2O8)CCC3(O)C1C5 (stereo unspecified) | > 100 | > 100 | > 100 |  | > 100 | > 100 | > 100 | > 100 |  |  |  |  |  |  |  |
| COc1cccc(/C=C(/C(=O)O)c2cc(OC)c(OC)c(OC)c2)c1 | > 100 | > 100 | > 100 |  | > 100 | > 100 | > 100 | > 100 |  |  |  |  |  |  |  |
| CC1(C)CC23C(=O)N(c4ccccc4)C(=Nc4ccccc4)NC2=CC(C#N)=C(C#N)C3O1 (stereo unspecified) | > 100 | > 100 | > 100 |  | > 100 | > 100 | > 100 | > 100 |  |  |  |  |  |  |  |
| C/C(=N\O)c1sc(-n2nc(-c3ccccc3)cc2-c2ccccc2)nc1C | 25.3 | 20.2 |  | 28.6 | 22 | 21.3 | 18 | 17 |  |  |  |  |  |  |  |
| CCc1ccccc1NC(=O)/C(CC(=O)c1c(C)n([O-])c2ccccc2[n+]1=O)=N\NS(=O)(=O)c1ccc(C)cc1 | > 100 | > 100 | 90.4 | 42.8 | > 100 | 82.1 |  | 47.1 |  |  |  |  |  |  |  |
| COC1=CC(=O)c2ccc(C(C)C)cc2C1(C)C1=NC(C)(C)CO1 (stereo unspecified) | > 100 | > 100 | > 100 | > 100 | > 100 | > 100 |  | > 100 |  |  |  |  |  |  |  |
| CC[O-].CC[O-].[O-]c1ccccc1C=Nc1ccccc1.[O-]c1ccccc1C=Nc1ccccc1.[Ti+4] | > 100 | > 100 | > 100 | > 100 | > 100 | > 100 | > 100 |  | > 100 | > 100 | > 100 | 26.9 | > 100 | > 100 | 1.92 |
